Experimental data: publication PMC7108740, “Exploring the molecular structures that confer ligand selectivity for galanin type II and III receptors” (PLoS ONE, 2020)

Legend:
Assay type in all cases: cell-based
GALR3 septuple = biological target: T1, GALR3 septuple (Homo sapiens, UniProt O60755, A190V/A191F/C272L/G192S/L100F/Y103F/Y107H); test: cAMP assay (inhibition of forskolin-induced cAMP), GALR3 septuple mutant; conditions: Glosensor-22F cAMP HEK293 cells, agonist 10 min then forskolin 10 μM, mean ± SE, SEM
T1 construct: expressed in transfected cells; host or cells: HEK293 cells stably expressing pGlosensor-22F cAMP plasmid
T1 sequence (O60755 1-368 L100F/Y103F/Y107H/A190V/A191F/G192S/C272L): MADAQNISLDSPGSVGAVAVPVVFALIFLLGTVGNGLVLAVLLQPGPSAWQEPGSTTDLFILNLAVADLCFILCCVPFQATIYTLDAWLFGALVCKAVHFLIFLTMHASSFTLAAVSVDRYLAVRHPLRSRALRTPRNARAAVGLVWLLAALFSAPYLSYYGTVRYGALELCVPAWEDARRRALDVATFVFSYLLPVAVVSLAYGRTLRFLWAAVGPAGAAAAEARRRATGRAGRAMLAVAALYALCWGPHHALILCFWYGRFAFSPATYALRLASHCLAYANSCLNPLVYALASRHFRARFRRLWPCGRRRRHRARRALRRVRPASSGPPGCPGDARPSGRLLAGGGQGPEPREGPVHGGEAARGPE
Method: SPX-induced or Qu-SPX-induced cyclic adenosine monophosphate (cAMP) mobilization was measured in HEK293 cells stably expressing the pGlosensor^TM-22F cAMP plasmid (Promega Corp., Madison, WI, USA). The Glosensor-22F cAMP HEK293 cells were seeded on 96-well plates at a density of 2.0 × 10^4 cells/well 24 h before transfection. A mixture including 100 ng expression plasmid and lipofectamine 2000 reagent in diluted Opti-MEM (Gibco) was incubated at room temperature for 20 min. The mixtures were added into each well according to the manufacturer's instructions (Invitrogen, CA, USA). After 48 h, Glosensor cAMP substrates were added to the transfected cells in CO2-independent media. After 2 h, the cells were incubated with a range of agonist concentrations or vehicle for 10 min and then exposed to foskolin (10 μM). Luminescence was measured for up to 30 min using a Microplate Reader (BioTek, Winooski, VT, USA).
Data analysis was performed by non-linear regression with a sigmoidal dose-response curve. The concentrations of agonists that induced half-maximal stimulation (EC50) were calculated using the GraphPad PRISM5 software (GraphPad software, Inc., San Diego, CA). All data are presented as the mean ± standard error (SE) of at least three independent experiments. […]

[1] = biological target: T2, GALR3 single mutant A^191F (Homo sapiens, UniProt O60755, A191F); test: SRE-luc luciferase assay, GALR3 A191F; conditions: GALR3 A^191F; SRE-luc in HEK293 Gqi cells, ligand 6 h; mean ± S.E.; SEM
T2 construct: expressed in transfected cells; host or cells: HEK293 cells stably expressing Gqi
T2 sequence (O60755 whole entry A191F): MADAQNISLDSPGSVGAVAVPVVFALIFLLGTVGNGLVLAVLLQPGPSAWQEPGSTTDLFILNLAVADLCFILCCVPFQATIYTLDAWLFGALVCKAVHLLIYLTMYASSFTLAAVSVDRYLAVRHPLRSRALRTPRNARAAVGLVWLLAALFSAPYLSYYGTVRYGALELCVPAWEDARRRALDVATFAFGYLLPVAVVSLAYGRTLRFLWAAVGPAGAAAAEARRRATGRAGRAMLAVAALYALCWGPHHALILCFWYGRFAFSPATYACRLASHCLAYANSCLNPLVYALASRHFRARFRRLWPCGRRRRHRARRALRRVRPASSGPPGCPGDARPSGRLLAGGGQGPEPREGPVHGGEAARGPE
Text: (§1) For domain swapping between GALR2 and GALR3, individual cDNA fragments of interest were amplified by polymerase chain reaction (PCR) with Pfu polymerase (ELPIS Biotech, Daejeon, Korea) and two specific primers, one corresponding to the 5' or 3' end of the GALR2 or GALR3 cDNA and the other to the region of overlap between the two receptors. The two resulting fragments, one from GALR2 and the other from GALR3, were subjected to a second round of PCR to generate the chimeric cDNAs. To construct single, double-, triple-, pentuple-, hextuple-, and septuple-mutant receptors, amino acids of GALR3 were substituted for the amino acids at the corresponding positions in GALR2 using PCR-based site-directed mutagenesis. All of the chimeric constructs were cloned into the pcDNA3 expression vector at HindⅢ and XbaⅠ sites. The DNA sequences of the chimeras were verified by automatic sequencing. […] The luciferase activity in 50 μl cell extract was determined using a luciferase assay system according to the standard protocol for the Synergy 2 Multi-Mode Microplate Reader (BioTek, Winooski, VT, USA). […] The concentrations of agonists that induced half-maximal stimulation (EC50) were calculated using the GraphPad PRISM5 software (GraphPad software, Inc., San Diego, CA). […]

[2] = biological target: T3, GALR3 single mutant F^265P (Homo sapiens, UniProt O60755); test: SRE-luc luciferase assay, GALR3 F265P; conditions: GALR3 F^265P; SRE-luc in HEK293 Gqi cells, ligand 6 h; mean ± S.E.
T3 construct: expressed in transfected cells; host or cells: HEK293 cells stably expressing Gqi
T3 sequence (O60755 whole entry F265L): as the sequence (O60755 whole entry A191F) above, with F191A, F265L counted along it
Text: as §1

How did the EC50 (GALR3 septuple) turn out when `CSCC[C@H](NC(=O)[C@H](C)NC(=O)[C@H](CCC(N)=O)NC(=O)[C@@H]1CCCN1C(=O)[C@@H](NC(=O)[C@H](Cc1c[nH]c2ccccc12)NC(=O)[C@@H](N)CC(N)=O)[C@@H](C)O)C(=O)N[C@@H](CC(C)C)C(=O)N[C@@H](Cc1ccc(O)cc1)C(=O)N[C@@H](CC(C)C)C(=O)N[C@@H](CCCCN)C(=O)NCC(=O)N[C@@H](C)C(=O)N[C@@H](CCC(N)=O)C(N)=O` [SPX, reference compound] was run?
The EC50 was 77.6 ± 38.7 nM.

What about the EC50 [1] of the same compound?
Its EC50 is 91.2 ± 31 nM.

What about the EC50 [2] of the same compound?
Its EC50 is > 1000 nM.
